According to patent US10954216B2, “BMP-signal-inhibiting compound” (RIKEN, priority 2016, dated 2021):
pIC50: −log10 of the molar value.

system: BMP signal in MDA-231-D-BREFluc/Rluc cells; assay: BMP signal inhibitory effect (AlphaScreen SureFire SMAD1 p-Ser463/465, BMP-6 stimulation); assay type: cell-based; conditions: BMP-6 stimulated MDA-231-D-BREFluc/Rluc cells, phospho-SMAD1 AlphaScreen; read-out: IC50
Procedure: BMP Signal Inhibitory Effect
A BMP signal inhibitory activity of a compound of the present invention was evaluated according to the following method.
MDA-231-D-BREFluc/Rluc cells prepared according to the method described in Y. Katsuno et al., Oncogene, 27, 6322 (2008) were incubated at 37° C. for 2 hours together with test compounds, and BMP-6 (commercially available from R&D System, 507-BM-020) was then added thereto, and the mixture was additionally incubated at 37° C. for 30 minutes. A Lysis Buffer and Acceptor mix of AlphaScreen SureFire SMAD1 (p-Ser463/465) assay kit (commercially available from Perkin Elmer, TGRSM1S10K) were sequentially added thereto, the mixture was incubated at room temperature for 2 hours, and AlphaScreen Protein A kit (commercially available from Perkin Elmer, 6760617) was then added thereto, and standard AlphaScreen settings of Alpha Technology—compatible plate reader (commercially available from Perkin Elmer, EnSpire) was used for measurement.

Compound	pIC50
CCn1cc(-c2ccnc(Nc3ccc(C(=O)N4CCN(C(C)C)CC4)cc3)n2)c(-c2cccnc2)n1 [Example 119, (4-((4-(1-Ethyl-3-(pyridin-3-yl)-1H-pyrazol-4-yl)pyrimidin-2-yl)amino)phenyl) (4-isopropylpiperazin-1-yl)methanone]	8.30
CCn1cc(-c2ccnc(Nc3ccc(OC4CN(CC(C)(C)O)C4)cc3)n2)c(-c2cccnc2)n1 [Example 108, 1-(3-(4-((4-(1-Ethyl-3-(pyridin-3-yl)-1H-pyrazol-4-yl)pyrimidin-2-yl)amino)phenoxy)azetidin-1-yl)-2-methylpropan-2-ol]	7.88
CCn1cc(-c2ccnc(Nc3ccc4c(c3)CN(C3COC3)C4)n2)c(-c2cccnc2)n1 [Example 9, N-(4-(1-Ethyl-3-(pyridin-3-yl)-1H-pyrazol-4-yl)pyrimidin-2-yl)-2-(oxetan-3-yl)isoindolin-5-amine]	7.63
COCCn1cc(-c2ccnc(Nc3ccc(N4CCN(C)CC4)cc3)n2)c(-c2cccnc2)n1 [Example 35, 4-(1-(2-methoxyethyl)-3-(pyridin-3-yl)-1H-pyrazol-4-yl)-N-(4-(4-methylpiperazin-1-yl)phenyl)pyrimidin-2-amine]	7.65
CCn1cc(-c2ccnc(Nc3ccc(-c4nnc(C)s4)cc3)n2)c(-c2cccnc2)n1 [Example 56, 4-(1-Ethyl-3-(pyridin-3-yl)-1H-pyrazol-4-yl)-N-(4-(5-methyl-1,3,4-thiadiazol-2-yl)phenyl)pyrimidin-2-amine]	7.75
CCn1cc(-c2ccnc(Nc3ccc(CCN4CCN(CCOC)CC4)cc3)n2)c(-c2cccnc2)n1 [Example 43, 4-(1-ethyl-3-(pyridin-3-yl)-1H-pyrazol-4-yl)-N-(4-(2-(4-(2-methoxyethyl)piperazin-1-yl)ethyl)phenyl)pyrimidin-2-amine]	8.28
CCn1cc(-c2ccnc(Nc3ccc(C4CCN(C(=O)CO)CC4)cc3)n2)c(-c2cccnc2)n1 [Example 59, 1-(4-(4-((4-(1-ethyl-3-(pyridin-3-yl)-1H-pyrazol-4-yl)pyrimidin-2-yl)amino)phenyl)piperidin-1-yl)-2-hydroxyethan-1-one]	7.60
CCn1cc(-c2ccnc(Nc3ccc4c(c3)CCN(C)CC4)n2)c(-c2cccnc2)n1 [Example 115, N-(4-(1-Ethyl-3-(pyridin-3-yl)-1H-pyrazol-4-yl)pyrimidin-2-yl)-3-methyl-2,3,4,5-tetrahydro-1H-benzo [d] azepin-7-amine]	8.96
COCCn1cc(-c2ccnc(Nc3ccc(N4CCN(CC5CC5)CC4)cc3)n2)c(-c2cccnc2)n1 [Example 36, N-(4-(4-(Cyclopropylmethyl)piperazin-1-yl)phenyl)-4-(1-(2-methoxyethyl)-3-(pyridin-3-yl)-1H-pyrazole-4-yl)pyrimidin-2-amine]	7.80
CCn1cc(-c2ccnc(Nc3ccc(N4CCN5CCC4CC5)cc3)n2)c(-c2cccnc2)n1 [Example 69, N-(4-(1,4-diazabicyclo[3.2.2]nonan-4-yl)phenyl)-4-(1-ethyl-3-(pyridin-3-yl)-1H-pyrazol-4-yl)pyrimidin-2-amine]	7.89
CCn1cc(-c2ccnc(Nc3ccc(N4CCN(CC5CC(C)(C)O5)CC4)cc3)n2)c(-c2cccnc2)n1 (stereo not shown) [Example 96, N-(4-(4-((4,4-dimethyloxetan-2-yl)methyl)piperazin-1-yl)phenyl)-4-(1-ethyl-3-(pyridin-3-yl)-1H-pyrazol-4-yl)pyrimidin-2-amine]	7.68
CN1CCCC1CN1CCN(c2ccc(Nc3nccc(-c4cn(C5COC5)nc4-c4cccnc4)n3)cc2)CC1 (stereo not shown) [Example 79, N-(4-(4-((1-Methylpyrrolidin-2-yl)methyl)piperazin-1-yl)phenyl)-4-(1-(oxetan-3-yl)-3-(pyridin-3-yl)-1H-pyrazol-4-yl)pyrimidin-2-amine]	7.45
CCn1cc(-c2ccnc(Nc3ccc(CCN4CCN(C)CC4)cc3)n2)c(-c2cccnc2)n1 [Example 112, 4-(1-ethyl-3-(pyridin-3-yl)-1H-pyrazol-4-yl)-N-(4-(2-(4-methylpiperazin-1-yl)ethyl)phenyl)pyrimidin-2-amine]	7.93
CCn1cc(-c2ccnc(Nc3ccc(-n4ccnc4)cc3)n2)c(-c2cccnc2)n1 [Example 44, N-(4-(1H-Imidazol-1-yl)phenyl)-4-(1-ethyl-3-(pyridin-3-yl)-1H-pyrazol-4-yl)pyrimidin-2-amine]	7.84
CCn1cc(-c2ccnc(Nc3ccc4c(c3)CCN(C3COC3)CC4)n2)c(-c2cccnc2)n1 [Example 125, N-(4-(1-Ethyl-3-(pyridin-3-yl)-1H-pyrazol-4-yl)pyrimidin-2-yl)-3-(oxetan-3-yl)-2,3,4,5-tetrahydro-1H-benzo [d] azepin-7-amine]	8.00
CCn1cc(-c2ccnc(Nc3ccc(N4CCN(CC5(C)COC5)CC4)cc3)n2)c(-c2cccnc2)n1 [Example 98, 4-(1-ethyl-3-(pyridin-3-yl)-1H-pyrazol-4-yl)-N-(4-(4-((3-methyloxetan-3-yl)methyl)piperazin-1-yl)phenyl)pyrimidin-2-amine]	7.63

Compound	pIC50
COCCN1CCN(c2ccc(Nc3nccc(-c4cn(C5CCOC5)nc4-c4cccnc4)n3)cc2)CC1 (stereo not shown) [Example 76, N-(4-(4-(2-methoxyethyl)piperazin-1-yl)phenyl)-4-(3-(pyridin-3-yl)-1-(tetrahydrofuran-3-yl)-1H-pyrazol-4-yl)pyrimidin-2-amine]	7.34
CCn1cc(-c2ccnc(Nc3ccc(C(=O)N4CCN(C(C)(C)C)CC4)cc3)n2)c(-c2cccnc2)n1 [Example 1, (4-(tert-butyl)piperazin-1-yl)(4-((4-(1-ethyl-3-(pyridin-3-yl)-1H-pyrazol-4-yl)pyrimidin-2-yl)amino)phenyl)methanone]	8.16
CCn1cc(-c2ccnc(Nc3ccc(-n4nc(C)nc4C)cc3)n2)c(-c2cccnc2)n1 [Example 39, N-(4-(3,5-dimethyl-1H-1,2,4-triazol-1-yl)phenyl)-4-(1-ethyl-3-(pyridin-3-yl)-1H-pyrazol-4-yl)pyrimidin-2-amine]	7.95
COCC(O)CN1CCN(c2ccc(Nc3nccc(-c4cn(CC(C)(C)O)nc4-c4cccnc4)n3)cc2)CC1 (stereo not shown) [Example 111, 1-(4-(2-((4-(4-(2-Hydroxy-3-methoxypropyl)piperazin-1-yl)phenyl)amino)pyrimidin-4-yl)-3-(pyridin-3-yl)-1H-pyrazol-1-yl)-2-methylpropan-2-ol]	7.56
COCCN1CCN(c2ccc(Nc3nccc(-c4cn(CC5(C)COC5)nc4-c4cccnc4)n3)cc2)CC1 [Example 77]	7.29
CCn1cc(-c2ccnc(Nc3ccc(N4CCN(C)CC4)c(OC)c3)n2)c(-c2cccnc2)n1 [Example 47, 4-(1-ethyl-3-(pyridin-3-yl)-1H-pyrazol-4-yl)-N-(3-methoxy-4-(4-methylpiperazin-1-yl)phenyl)pyrimidin-2-amine]	7.99
CCn1cc(-c2ccnc(Nc3cccc(OCCN(C)C)c3)n2)c(-c2cccnc2)n1 [Example 24, N-(3-(2-(dimethylamino)ethoxy)phenyl)-4-(1-ethyl-3-(pyridin-3-yl)-1H-pyrazol-4-yl)pyrimidin-2-amine]	8.28
CCn1cc(-c2ccnc(Nc3ccc(N4CCN(CCOC)CC4)nc3)n2)c(-c2cccnc2)n1 [Example 84, 4-(1-Ethyl-3-(pyridin-3-yl)-1H-pyrazol-4-yl)-N-(6-(4-(2-methoxyethyl)piperazin-1-yl)pyridin-3-yl)pyrimidin-2-amine]	7.71
CCn1cc(-c2ccnc(Nc3ccc(N4CCC5(CC4)CN(C(C)=O)C5)cc3)n2)c(-c2cccnc2)n1 [Example 21, 1-(7-(4-((4-(1-ethyl-3-(pyridin-3-yl)-1H-pyrazol-4-yl)pyrimidin-2-yl)amino)phenyl)-2,7-diazaspiro[3.5]nonan-2-yl)ethan-1-one]	7.41
FC(F)(F)Cn1cc(-c2ccnc(Nc3ccc(N4CCNCC4)cc3)n2)c(-c2cccnc2)n1 [Example 136, N-(4-(piperazin-1-yl)phenyl)-4-(3-(pyridin-3-yl)-1-(2,2,2-trifluoroethyl)-1H-pyrazol-4-yl)pyrimidin-2-amine]	7.88
CCn1cc(-c2ccnc(Nc3ccc(N4CCC[C@@H](N)C4)cc3)n2)c(-c2cccnc2)n1 [Example 161, (R)-N-(4-(3-Aminopiperidin-1-yl)phenyl)-4-(1-ethyl-3-(pyridin-3-yl)-1H-pyrazol-4-yl)pyrimidin-2-amine]	7.90
CCn1cc(-c2ccnc(Nc3ccc(Cn4cncn4)cc3)n2)c(-c2cccnc2)n1 [Example 42, N-(4-((1H-1,2,4-Triazol-1-yl)methyl)phenyl)-4-(1-ethyl-3-(pyridin-3-yl)-1H-pyrazol-4-yl)pyrimidin-2-amine]	7.43
CCn1cc(-c2ccnc(Nc3ccc(-c4cccnc4)cc3)n2)c(-c2cccnc2)n1 [Example 133, 4-(1-ethyl-3-(pyridin-3-yl)-1H-pyrazol-4-yl)-N-(4-(pyridin-3-yl)phenyl)pyrimidin-2-amine]	7.73
CCn1cc(-c2ccnc(Nc3cnn(C4CN(CC(C)(C)O)C4)c3)n2)c(-c2cccnc2)n1 [Example 48, 1-(3-(4-((4-(1-Ethyl-3-(pyridin-3-yl)-1H-pyrazol-4-yl)pyrimidin-2-yl)amino)-1H-pyrazol-1-yl)azetidin-1-yl)-2-methylpropan-2-ol]	7.67
CCn1cc(-c2nc(Nc3ccc(N4CCNCC4)cc3)ncc2F)c(-c2cccnc2)n1 [Example 166, 4-(1-Ethyl-3-(pyridin-3-yl)-1H-pyrazol-4-yl)-5-fluoro-N-(4-(piperazin-1-yl)phenyl)pyrimidin-2-amine]	7.40
